Experimental data reported in the kinase profiling compilation of Christmann-Franck et al. (2016).

How the values were obtained:
Assay in all cases: radiometric filter-binding kinase assay
[1] = biological target: MELK (human) (UniProt Q14680)
[2] = biological target: EPHA4 (human) (UniProt P54764)
[3] = biological target: RIPK2 (human) (UniProt O43353)
[4] = biological target: MAPK8 (human) (UniProt P45983)
[5] = biological target: EPHB2 (human) (UniProt P29323)
[6] = biological target: MAPK15 (human) (UniProt Q8TD08)
[7] = biological target: AURKB (human) (UniProt Q96GD4)
[8] = biological target: CAMKK2 (human) (UniProt Q96RR4)
[9] = biological target: MAPKAPK5 (human) (UniProt Q8IW41)
MAPKAPK5 (human), sequence (Q8IW41 whole entry, looked up): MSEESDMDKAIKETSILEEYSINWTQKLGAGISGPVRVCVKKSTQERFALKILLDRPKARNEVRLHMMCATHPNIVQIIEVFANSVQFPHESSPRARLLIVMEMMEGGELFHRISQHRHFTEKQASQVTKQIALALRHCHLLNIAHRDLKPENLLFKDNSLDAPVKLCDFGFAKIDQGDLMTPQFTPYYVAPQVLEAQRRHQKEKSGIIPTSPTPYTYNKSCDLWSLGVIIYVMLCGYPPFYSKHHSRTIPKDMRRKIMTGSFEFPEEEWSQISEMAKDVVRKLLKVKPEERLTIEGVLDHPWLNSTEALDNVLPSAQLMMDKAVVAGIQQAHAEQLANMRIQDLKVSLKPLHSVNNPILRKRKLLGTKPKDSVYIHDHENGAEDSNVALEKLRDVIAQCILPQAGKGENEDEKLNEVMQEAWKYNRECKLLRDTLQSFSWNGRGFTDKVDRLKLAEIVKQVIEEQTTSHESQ

[10] = biological target: PIM1 (human) (UniProt P11309)
[11] = biological target: DYRK1A (human) (UniProt Q13627)
[12] = biological target: DYRK2 (human) (UniProt Q92630)
[13] = biological target: CaMK1 (human) (UniProt Q14012)
[14] = biological target: CSNK1D (human) (UniProt P48730)
[15] = biological target: IKBKB (human) (UniProt O14920)
[16] = biological target: CSK (human) (UniProt P41240)
[17] = biological target: EPHB3 (human) (UniProt P54753)
EPHB3 (human), sequence (P54753 whole entry, looked up): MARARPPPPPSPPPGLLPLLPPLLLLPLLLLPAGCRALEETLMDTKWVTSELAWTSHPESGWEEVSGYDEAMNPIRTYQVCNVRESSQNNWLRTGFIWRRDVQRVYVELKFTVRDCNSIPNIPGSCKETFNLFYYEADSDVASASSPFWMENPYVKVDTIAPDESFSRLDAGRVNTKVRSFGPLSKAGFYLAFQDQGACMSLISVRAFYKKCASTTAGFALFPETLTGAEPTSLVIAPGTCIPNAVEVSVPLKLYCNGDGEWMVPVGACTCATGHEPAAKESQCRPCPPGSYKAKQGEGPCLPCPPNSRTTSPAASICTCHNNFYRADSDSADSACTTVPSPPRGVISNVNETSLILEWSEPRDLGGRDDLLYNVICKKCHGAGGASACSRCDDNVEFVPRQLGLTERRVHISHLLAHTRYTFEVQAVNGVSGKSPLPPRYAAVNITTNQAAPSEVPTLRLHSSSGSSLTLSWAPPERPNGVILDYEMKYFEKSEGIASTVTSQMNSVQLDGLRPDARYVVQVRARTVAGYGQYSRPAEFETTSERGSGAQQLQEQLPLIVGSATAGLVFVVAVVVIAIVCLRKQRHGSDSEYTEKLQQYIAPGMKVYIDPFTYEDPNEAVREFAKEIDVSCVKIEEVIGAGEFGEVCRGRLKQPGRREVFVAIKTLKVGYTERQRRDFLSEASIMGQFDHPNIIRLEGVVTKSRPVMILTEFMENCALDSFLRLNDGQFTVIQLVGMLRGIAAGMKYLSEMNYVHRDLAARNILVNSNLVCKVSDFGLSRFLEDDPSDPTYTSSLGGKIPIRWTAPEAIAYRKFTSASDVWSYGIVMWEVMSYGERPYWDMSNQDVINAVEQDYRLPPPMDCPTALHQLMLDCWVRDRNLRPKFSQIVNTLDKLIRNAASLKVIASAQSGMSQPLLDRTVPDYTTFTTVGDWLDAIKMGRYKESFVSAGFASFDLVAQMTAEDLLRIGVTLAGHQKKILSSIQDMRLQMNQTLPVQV

[18] = biological target: MKNK2 (human) (UniProt Q9HBH9)
MKNK2 (human), sequence (Q9HBH9 whole entry, looked up): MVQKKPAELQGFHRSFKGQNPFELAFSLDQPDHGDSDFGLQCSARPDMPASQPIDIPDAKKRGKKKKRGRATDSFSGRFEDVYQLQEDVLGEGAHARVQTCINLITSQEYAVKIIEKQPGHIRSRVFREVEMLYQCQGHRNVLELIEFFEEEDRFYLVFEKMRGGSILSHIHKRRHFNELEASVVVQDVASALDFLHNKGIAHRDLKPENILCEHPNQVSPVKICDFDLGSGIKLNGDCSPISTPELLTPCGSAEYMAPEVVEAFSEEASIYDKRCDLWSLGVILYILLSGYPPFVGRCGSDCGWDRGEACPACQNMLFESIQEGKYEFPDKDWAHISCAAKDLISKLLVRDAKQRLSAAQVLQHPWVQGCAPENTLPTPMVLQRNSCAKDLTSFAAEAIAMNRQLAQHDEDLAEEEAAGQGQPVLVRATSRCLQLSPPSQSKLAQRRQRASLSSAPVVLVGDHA

[19] = biological target: MAP2K2 (human) (UniProt P36507)
[20] = biological target: MAPKAPK2 (human) (UniProt P49137)
[21] = biological target: HIPK2 (human) (UniProt Q9H2X6)
[22] = biological target: PAK7 (human) (UniProt Q9P286)
[23] = biological target: IGF1R (human) (UniProt P08069)
IGF1R (human), sequence (P08069 whole entry, looked up): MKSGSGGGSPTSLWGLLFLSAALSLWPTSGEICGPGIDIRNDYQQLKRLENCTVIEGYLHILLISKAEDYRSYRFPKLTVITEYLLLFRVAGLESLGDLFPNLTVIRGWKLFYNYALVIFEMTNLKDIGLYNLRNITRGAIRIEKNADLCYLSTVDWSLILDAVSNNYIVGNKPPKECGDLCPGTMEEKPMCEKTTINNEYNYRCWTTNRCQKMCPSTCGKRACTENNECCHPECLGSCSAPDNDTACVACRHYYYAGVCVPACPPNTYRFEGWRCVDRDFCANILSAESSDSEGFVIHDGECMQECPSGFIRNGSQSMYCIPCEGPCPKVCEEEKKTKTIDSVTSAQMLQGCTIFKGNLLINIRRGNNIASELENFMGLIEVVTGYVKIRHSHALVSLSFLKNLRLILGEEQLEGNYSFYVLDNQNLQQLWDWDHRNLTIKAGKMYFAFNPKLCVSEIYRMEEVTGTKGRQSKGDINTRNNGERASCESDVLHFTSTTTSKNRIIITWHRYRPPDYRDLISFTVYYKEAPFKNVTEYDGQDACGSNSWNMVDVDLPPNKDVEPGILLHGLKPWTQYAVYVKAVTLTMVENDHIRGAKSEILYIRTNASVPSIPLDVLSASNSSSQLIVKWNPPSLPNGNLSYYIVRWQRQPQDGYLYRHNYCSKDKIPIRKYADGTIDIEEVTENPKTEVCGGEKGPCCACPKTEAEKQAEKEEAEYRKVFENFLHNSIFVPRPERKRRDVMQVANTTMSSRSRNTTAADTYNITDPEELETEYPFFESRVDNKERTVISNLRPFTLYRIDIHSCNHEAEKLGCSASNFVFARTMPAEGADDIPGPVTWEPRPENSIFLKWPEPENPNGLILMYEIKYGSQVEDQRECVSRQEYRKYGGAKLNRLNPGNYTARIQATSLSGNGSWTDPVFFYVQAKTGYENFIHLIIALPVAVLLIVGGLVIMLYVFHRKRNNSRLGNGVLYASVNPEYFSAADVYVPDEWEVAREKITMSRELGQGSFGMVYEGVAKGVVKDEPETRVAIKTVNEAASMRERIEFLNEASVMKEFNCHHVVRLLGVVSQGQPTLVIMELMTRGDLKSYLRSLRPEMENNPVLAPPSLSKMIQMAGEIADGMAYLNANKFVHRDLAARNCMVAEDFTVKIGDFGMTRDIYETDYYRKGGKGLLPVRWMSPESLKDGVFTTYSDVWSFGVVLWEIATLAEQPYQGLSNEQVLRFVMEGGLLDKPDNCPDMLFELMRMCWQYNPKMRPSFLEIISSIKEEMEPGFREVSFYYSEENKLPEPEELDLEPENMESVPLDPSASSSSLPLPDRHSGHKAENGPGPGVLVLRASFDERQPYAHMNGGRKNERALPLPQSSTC

[24] = biological target: MINK1 (human) (UniProt Q8N4C8)
MINK1 (human), sequence (Q8N4C8 whole entry, looked up): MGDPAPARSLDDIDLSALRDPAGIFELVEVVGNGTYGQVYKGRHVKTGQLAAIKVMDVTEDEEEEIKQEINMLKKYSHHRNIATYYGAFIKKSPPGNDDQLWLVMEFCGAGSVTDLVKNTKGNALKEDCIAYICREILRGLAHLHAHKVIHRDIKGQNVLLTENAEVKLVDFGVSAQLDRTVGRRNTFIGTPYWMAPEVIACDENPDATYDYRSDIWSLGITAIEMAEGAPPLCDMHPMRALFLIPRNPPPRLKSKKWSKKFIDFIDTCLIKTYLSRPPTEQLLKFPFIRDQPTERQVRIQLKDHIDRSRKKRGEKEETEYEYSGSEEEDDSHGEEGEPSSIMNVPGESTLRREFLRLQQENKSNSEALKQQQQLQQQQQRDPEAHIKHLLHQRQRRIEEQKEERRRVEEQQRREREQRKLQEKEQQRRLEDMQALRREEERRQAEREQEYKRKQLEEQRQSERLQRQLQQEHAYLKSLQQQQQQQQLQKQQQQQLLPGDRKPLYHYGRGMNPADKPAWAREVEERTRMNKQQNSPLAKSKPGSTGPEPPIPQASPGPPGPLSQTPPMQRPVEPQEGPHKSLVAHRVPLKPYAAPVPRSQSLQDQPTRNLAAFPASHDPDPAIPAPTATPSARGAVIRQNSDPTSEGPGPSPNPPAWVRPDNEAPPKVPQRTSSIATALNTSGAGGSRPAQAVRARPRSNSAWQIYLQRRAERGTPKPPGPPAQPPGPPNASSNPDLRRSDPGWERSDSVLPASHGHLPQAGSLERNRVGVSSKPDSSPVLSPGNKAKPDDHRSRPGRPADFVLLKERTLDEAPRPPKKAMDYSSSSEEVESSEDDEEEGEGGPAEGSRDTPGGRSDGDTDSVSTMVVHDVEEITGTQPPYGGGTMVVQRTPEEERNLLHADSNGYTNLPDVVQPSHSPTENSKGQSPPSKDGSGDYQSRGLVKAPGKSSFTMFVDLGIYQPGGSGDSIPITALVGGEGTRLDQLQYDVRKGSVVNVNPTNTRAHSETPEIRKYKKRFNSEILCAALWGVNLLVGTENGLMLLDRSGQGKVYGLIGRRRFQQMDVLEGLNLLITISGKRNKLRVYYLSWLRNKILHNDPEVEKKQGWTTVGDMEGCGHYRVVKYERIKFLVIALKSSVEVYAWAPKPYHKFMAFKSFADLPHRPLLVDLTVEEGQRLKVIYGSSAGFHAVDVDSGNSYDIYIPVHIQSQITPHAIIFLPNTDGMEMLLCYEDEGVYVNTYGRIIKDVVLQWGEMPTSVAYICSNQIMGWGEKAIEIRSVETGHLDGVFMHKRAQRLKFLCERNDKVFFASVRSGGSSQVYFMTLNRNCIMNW

[25] = biological target: PRKACA (human) (UniProt P17612)
[26] = biological target: IKBKE (human) (UniProt Q14164)
[27] = biological target: MAPK12 (human) (UniProt P53778)
MAPK12 (human), sequence (P53778 whole entry, looked up): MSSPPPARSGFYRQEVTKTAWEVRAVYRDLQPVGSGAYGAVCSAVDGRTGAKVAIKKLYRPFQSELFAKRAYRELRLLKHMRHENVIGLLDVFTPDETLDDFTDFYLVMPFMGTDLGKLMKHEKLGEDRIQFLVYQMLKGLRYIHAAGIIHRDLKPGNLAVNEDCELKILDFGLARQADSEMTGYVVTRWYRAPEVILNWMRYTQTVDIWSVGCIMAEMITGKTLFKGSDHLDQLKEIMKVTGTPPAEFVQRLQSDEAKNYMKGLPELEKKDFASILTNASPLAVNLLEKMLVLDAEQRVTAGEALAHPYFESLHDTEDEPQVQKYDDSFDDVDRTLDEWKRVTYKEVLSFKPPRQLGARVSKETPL

[28] = biological target: YES1 (human) (UniProt P07947)
[29] = biological target: BTK (human) (UniProt Q06187)
[30] = biological target: MAP3K7 TAB1 (human) (UniProt Q15750+O43318)
[31] = biological target: BRSK1 (human) (UniProt Q8TDC3)
[32] = biological target: MAPK9 (human) (UniProt P45984)
[33] = biological target: PAK4 (human) (UniProt O96013)
[34] = biological target: MAP3K11 (human) (UniProt Q16584)
[35] = biological target: MAPK14 (human) (UniProt Q16539)

`Cc1ccc(Sc2cnc(Nc3cccc(Br)n3)s2)cc1C(=O)N1CCN(C(=O)CN)CC1` was tested, and the residual activity ([1]; compound 0.1 µM) was 42%, the residual activity ([1]; compound 1.0 µM) was 15% and the residual activity ([1]; compound 10.0 µM) was 5%. For the same compound, the residual activity ([2]; compound 0.1 µM) was 22%, the residual activity ([2]; compound 1.0 µM) was 29% and the residual activity ([2]; compound 10.0 µM) was 0%. It also gave a residual activity ([3]; compound 0.1 µM) of 20%, a residual activity ([3]; compound 1.0 µM) of 17% and a residual activity ([3]; compound 10.0 µM) of 8%. The residual activity ([4]; compound 0.1 µM) was 98%, the residual activity ([4]; compound 1.0 µM) was 99% and the residual activity ([4]; compound 10.0 µM) was 53%. The residual activity ([5]; compound 0.1 µM) was 11%, the residual activity ([5]; compound 1.0 µM) was 4% and the residual activity ([5]; compound 10.0 µM) was 4%. For the same compound, the residual activity ([6]; compound 0.1 µM) was 1%, the residual activity ([6]; compound 1.0 µM) was 1% and the residual activity ([6]; compound 10.0 µM) was 1%. For the same compound, the residual activity ([7]; compound 0.1 µM) was 65%, the residual activity ([7]; compound 1.0 µM) was 42% and the residual activity ([7]; compound 10.0 µM) was 7%. It also gave a residual activity ([8]; compound 0.1 µM) of 22%, a residual activity ([8]; compound 1.0 µM) of 19% and a residual activity ([8]; compound 10.0 µM) of 19%. The residual activity ([9]; compound 0.1 µM) was 96%, the residual activity ([9]; compound 1.0 µM) was 94% and the residual activity ([9]; compound 10.0 µM) was 96%. For the same compound, the residual activity ([10]; compound 0.1 µM) was 54%, the residual activity ([10]; compound 1.0 µM) was 49% and the residual activity ([10]; compound 10.0 µM) was 11%. The residual activity ([11]; compound 0.1 µM) was 103%, the residual activity ([11]; compound 1.0 µM) was 101% and the residual activity ([11]; compound 10.0 µM) was 61%. It also gave a residual activity ([12]; compound 0.1 µM) of 101%, a residual activity ([12]; compound 1.0 µM) of 87% and a residual activity ([12]; compound 10.0 µM) of 80%. For the same compound, the residual activity ([13]; compound 0.1 µM) was 62%, the residual activity ([13]; compound 1.0 µM) was 59% and the residual activity ([13]; compound 10.0 µM) was 11%. For the same compound, the residual activity ([14]; compound 0.1 µM) was 99%, the residual activity ([14]; compound 1.0 µM) was 87% and the residual activity ([14]; compound 10.0 µM) was 68%. For the same compound, the residual activity ([15]; compound 0.1 µM) was 107%, the residual activity ([15]; compound 1.0 µM) was 92% and the residual activity ([15]; compound 10.0 µM) was 84%. It also gave a residual activity ([16]; compound 0.1 µM) of 103%, a residual activity ([16]; compound 1.0 µM) of 88% and a residual activity ([16]; compound 10.0 µM) of 9%. It also gave a residual activity ([17]; compound 0.1 µM) of 22%, a residual activity ([17]; compound 1.0 µM) of 20% and a residual activity ([17]; compound 10.0 µM) of 6%. It also gave a residual activity ([18]; compound 0.1 µM) of 120%, a residual activity ([18]; compound 1.0 µM) of 92% and a residual activity ([18]; compound 10.0 µM) of 73%. For the same compound, the residual activity ([19]; compound 0.1 µM) was 86%, the residual activity ([19]; compound 1.0 µM) was 77% and the residual activity ([20]; compound 0.1 µM) was 98%. It also gave a residual activity ([20]; compound 1.0 µM) of 86%, a residual activity ([20]; compound 10.0 µM) of 80% and a residual activity ([21]; compound 0.1 µM) of 14%. For the same compound, the residual activity ([21]; compound 1.0 µM) was 13%, the residual activity ([21]; compound 10.0 µM) was 5% and the residual activity ([22]; compound 0.1 µM) was 62%. The residual activity ([22]; compound 1.0 µM) was 58%, the residual activity ([22]; compound 10.0 µM) was 22% and the residual activity ([23]; compound 0.1 µM) was 2%. The residual activity ([23]; compound 1.0 µM) was 2%, the residual activity ([23]; compound 10.0 µM) was 2% and the residual activity ([24]; compound 0.1 µM) was 69%. For the same compound, the residual activity ([24]; compound 1.0 µM) was 64%, the residual activity ([24]; compound 10.0 µM) was 8% and the residual activity ([25]; compound 0.1 µM) was 98%. For the same compound, the residual activity ([25]; compound 1.0 µM) was 88%, the residual activity ([25]; compound 10.0 µM) was 54% and the residual activity ([26]; compound 0.1 µM) was 91%. The residual activity ([26]; compound 1.0 µM) was 80%, the residual activity ([26]; compound 10.0 µM) was 76% and the residual activity ([27]; compound 0.1 µM) was 77%. The residual activity ([27]; compound 1.0 µM) was 80%, the residual activity ([27]; compound 10.0 µM) was 45% and the residual activity ([28]; compound 0.1 µM) was 11%. The residual activity ([28]; compound 1.0 µM) was 11%, the residual activity ([28]; compound 10.0 µM) was 6% and the residual activity ([29]; compound 0.1 µM) was 96%. It also gave a residual activity ([29]; compound 1.0 µM) of 53%, a residual activity ([29]; compound 10.0 µM) of 8% and a residual activity ([30]; compound 0.1 µM) of 107%. For the same compound, the residual activity ([30]; compound 1.0 µM) was 84%, the residual activity ([30]; compound 10.0 µM) was 27% and the residual activity ([31]; compound 0.1 µM) was 82%. It also gave a residual activity ([31]; compound 1.0 µM) of 81%, a residual activity ([31]; compound 10.0 µM) of 41% and a residual activity ([32]; compound 0.1 µM) of 98%. It also gave a residual activity ([32]; compound 1.0 µM) of 94%, a residual activity ([32]; compound 10.0 µM) of 54% and a residual activity ([33]; compound 0.1 µM) of 69%. It also gave a residual activity ([33]; compound 1.0 µM) of 67%, a residual activity ([33]; compound 10.0 µM) of 20% and a residual activity ([34]; compound 0.1 µM) of 84%. The residual activity ([34]; compound 1.0 µM) was 77%, the residual activity ([34]; compound 10.0 µM) was 51% and the residual activity ([35]; compound 0.1 µM) was 101%. For the same compound, the residual activity ([35]; compound 1.0 µM) was 89% and the residual activity ([35]; compound 10.0 µM) was 47%.
